According to PubChem BioAssay (NCI):
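Following 48 hours of exposure in 96-well plates, responses at five concentrations were used to interpolate endpoints linearly. GI50 marks 50% less growth. At the TGI there is no net growth.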

Tested on: MDA-MB-468 breast
Assay: NCI anticancer screen, dose series, 48 h

Compared with Cn1cc(C2=C(c3cccc4ccccc34)C(=O)NC2=O)c2ccccc21, Cn1cc(-c2nc(-c3c[nH]c4ncccc34)cs2)c2cc(F)ccc21 is 120-fold lower in GI50: 8.24 µM for the first, 0.069 µM for the second.

Going from O=[N+]([O-])c1ccc(Br)c([N+](=O)[O-])c1 to O=C1NN(c2ccc(C(=O)O)cc2)C(=O)/C1=C\c1ccc([N+](=O)[O-])o1, the GI50 rises from 1.67 µM to 22.5 µM (13-fold).

Compared with Cn1ccnc1C(=O)/C=C/c1ccc(C(=O)Nc2ccc(Cl)cc2)cc1, C[n+]1c(/C=C\c2ccc(Cl)cc2)ccc2ccccc21 is 3-fold higher in GI50: 0.793 µM for the first, 2.36 µM for the second.

Cn1cncc1[C@@](N)(c1ccc(Cl)cc1)c1ccc2c(c1)c(-c1cccc(Cl)c1)cc(=O)n2C and N#C/C(=C\c1ccc(-c2ccc(Cl)cc2)o1)C(=O)Nc1ncc(Cc2ccc(Cl)cc2)s1 are within 1.5-fold of each other in GI50: 1.69 µM for the first, 2.38 µM for the second.

CCCN(CCC)C(=O)C1=Cc2ccc(-c3ccc(C(=O)N4CCCC4)cc3)cc2N=C(N)C1 and C[C@@H]1CN(C(=O)c2ccc(NC(=O)c3cc(O[C@H](C)c4c(Cl)ccc(F)c4Cl)c(N)nn3)cc2)C[C@H](C)N1 are within 1.5-fold of each other in GI50: 2.56 µM for the first, 2.51 µM for the second.

First: CC1=C[C@H]2c3c(c(O)c(O)c4oc5c(C)cccc5c(=O)c34)[C@H](c3cc(O)c(O)c4oc5c(C)cccc5c(=O)c34)[C@H]2C(C)(C)C1
Second: CN(C)c1ccc(N2Cc3ccccc3OC3=C2C(=O)c2c(O)ccc(O)c2C3=O)cn1
The GI50 of the first is 16-fold higher: 2.62 µM for the first, 0.169 µM for the second.

Going from C1=Cc2ccccc2Nc2ccccc21 to CC(C)(C)NC(C1=CC(C)(C)c2ccccc2C1=O)c1ccccc1 (stereo unspecified), the GI50 falls from 4.36 µM to 0.245 µM (18-fold).

COc1cc2nc(-c3cnc(N(C)C)nc3)nc(NC3CCN(Cc4ccccc4)CC3)c2cc1OC and COc1cc(-c2nc(Nc3nc4ccccc4[nH]3)nc(N)c2C#N)cc(OC)c1OC are within 1.5-fold of each other in GI50: 1.38 µM for the first, 1.39 µM for the second.

Going from CC[C@H](C)[C@H]1NC(=O)[C@@H](N[C@](C)(O)[C@@H](N)CC(C)C)[C@@H](C)OC(=O)[C@H](Cc2ccc(OC)cc2)N(C)C(=O)[C@@H]2CCCN2C(=O)[C@H](CC(C)C)NC(=O)[C@@H](C)C(=O)[C@H](C(C)C)OC(=O)C[C@@H]1O to CCC(C)(C)C(=O)O[C@H]1C[C@@H](C)C=C2C=C[C@H](C)[C@H](CC[C@@H]3C[C@@H](O)CC(=O)O3)[C@H]21, the GI50 rises from 0.0217 µM to 1.62 µM (75-fold).

Compared with CCOc1cccc(/C=N/NC(=O)c2ccc(Nc3ccnc(C(F)(F)F)c3)cc2)c1O, COC(=O)Nc1nc2ccc(Oc3ccc(NC(=O)Nc4cccc(C(=O)O)c4)cc3)cc2[nH]1 is 2.9-fold higher in GI50: 0.349 µM for the first, 0.998 µM for the second.

First: CC1(C)CC[C@]23CC[C@]4(C)[C@H](CC[C@@H]5[C@@]6(C)CCCN(CO)C(C)(C)[C@@H]6CC[C@]54C)[C@H]2[C@H]1OC3
Second: C/C=C(\C)C(=O)N[C@H]1CC[C@]2(C)C3CC[C@@]4(C)C(CC[C@@H]4C(C)N(C)C)C3CCC2[C@H]1OC(C)=O (stereo partly specified)
The GI50 of the first is 1.5-fold higher: 1.81 µM for the first, 1.17 µM for the second.

Compared with COc1ccc2c(c1)C(=O)/C(=C/c1cccc(OCC(=O)Nc3nc4c(s3)CCCC4)c1)O2, COc1ccccc1OCC(=O)Nc1sc2c(c1C(N)=O)CCC2 is higher in GI50: 0.188 µM for the first, > 100 µM for the second.

Going from CCOc1c(Br)cc(C2C(C(=O)OC)=CN(C)C=C2C(=O)OC)cc1OC to COc1cc(C(=O)c2ccc3c(c2)OCO3)cc(OC)c1OC, the GI50 falls from 37.7 µM to 0.586 µM (64-fold).

Going from CC1=CC(=NC(=O)CBr)C=C/C1=N\S(=O)(=O)c1ccccc1 to O=c1cc(-c2ccccc2)[nH]c2cc(F)c(F)cc12, the GI50 falls from 2.41 µM to 0.384 µM (6.3-fold).

First: O=C1CC(c2ccc(N3CCOCC3)cc2)(c2ccsc2)NC(=O)C1Sc1ccccc1Cl (stereo unspecified)
Second: c1ccc(Cn2cc3c(c2-c2ccccc2)CCc2cnoc2-3)cc1
The GI50 of the first is 42-fold higher: 86.7 µM for the first, 2.06 µM for the second.

Going from CC[C@@H](C(=O)[C@@H](C)[C@@H](O)[C@H](C)[C@@H]1O[C@@H]([C@@H](CC)C(=O)O)CC[C@@H]1C)C1O[C@]2(C=CC(=O)[C@]3(CC[C@@](C)([C@H]4CC[C@](O)(CC)[C@H](C)O4)O3)O2)[C@H](C)C[C@@H]1C (stereo partly specified) to C=C1C(=O)O[C@H]2[C@H]1CC/C(COC(=O)CCCCC(=O)OC/C1=C/CC[C@@]3(C)O[C@H]3[C@H]3OC(=O)C(=C)[C@@H]3CC1)=C\CC[C@@]1(C)O[C@@H]21, the GI50 rises from 0.0857 µM to 1.66 µM (19-fold).

CCN(CC)CCCC(C)Nc1cnc(C(=O)Nc2ccc(Cl)c3cccnc23)cn1 (stereo unspecified) and O=c1c2cccc(Cl)c2sc2c(NCCCNCCO)nc3ccccc3c12 are within 1.5-fold of each other in GI50: 1.57 µM for the first, 1.19 µM for the second.

Going from COc1cc(NS(C)(=O)=O)ccc1Nc1c2ccc(Cl)cc2nc2c(OC)cccc12 to COc1ccc2nc(-c3cc(-c4cc(OC)c(OC)c(OC)c4)n[nH]3)[nH]c2c1, the GI50 rises from 0.136 µM to 0.388 µM (2.9-fold).

Compared with COc1cccc(C2c3cc4c(cc3OC(C)(O)C2C)OCO4)c1O (stereo unspecified), Cc1nn(-c2nc3ccccc3s2)c(C)c1Oc1ccccc1O is 4.3-fold lower in GI50: 4.83 µM for the first, 1.13 µM for the second.

Going from Cc1cc(N2CCCCC2)nc(N(CCCNc2ccnc3cc(Cl)ccc23)Cc2ccco2)n1 to Cn1nccc1Nc1nccc(-c2cc3c(s2)C(C)(C)N(CCN2CCOCC2)C3=O)n1, the GI50 rises from 1.72 µM to 6.1 µM (3.5-fold).

Going from COc1ccc(-c2[nH]c3ccccc3c2C=C(C#N)C#N)cc1 to COc1ccc(N(CC(=O)NCCC[Te]c2ccccc2)C(=O)c2ccccc2)cc1, the GI50 rises from 0.557 µM to 4.24 µM (7.6-fold).

Oc1ccc2cc(Br)ccc2c1-c1c(O)ccc2cc(Br)ccc12 showed a GI50 of 3.62 µM.

Going from Cn1cc(C2=C(c3cccc4ccccc34)C(=O)NC2=O)c2ccccc21 to Cn1cc(-c2nc(-c3c[nH]c4ncccc34)cs2)c2cc(F)ccc21, the TGI falls from > 25 µM to 0.725 µM.

Going from O=[N+]([O-])c1ccc(Br)c([N+](=O)[O-])c1 to O=C1NN(c2ccc(C(=O)O)cc2)C(=O)/C1=C\c1ccc([N+](=O)[O-])o1, the TGI rises from 3.27 µM to 57.4 µM (18-fold).

Going from Cn1ccnc1C(=O)/C=C/c1ccc(C(=O)Nc2ccc(Cl)cc2)cc1 to C[n+]1c(/C=C\c2ccc(Cl)cc2)ccc2ccccc21, the TGI rises from 2.8 µM to 8.37 µM (3-fold).

Cn1cncc1[C@@](N)(c1ccc(Cl)cc1)c1ccc2c(c1)c(-c1cccc(Cl)c1)cc(=O)n2C and N#C/C(=C\c1ccc(-c2ccc(Cl)cc2)o1)C(=O)Nc1ncc(Cc2ccc(Cl)cc2)s1 are within 1.5-fold of each other in TGI: 6.76 µM for the first, 6.49 µM for the second.

CCCN(CCC)C(=O)C1=Cc2ccc(-c3ccc(C(=O)N4CCCC4)cc3)cc2N=C(N)C1 and C[C@@H]1CN(C(=O)c2ccc(NC(=O)c3cc(O[C@H](C)c4c(Cl)ccc(F)c4Cl)c(N)nn3)cc2)C[C@H](C)N1 are within 1.5-fold of each other in TGI: 11.8 µM for the first, 9.87 µM for the second.

First: CC1=C[C@H]2c3c(c(O)c(O)c4oc5c(C)cccc5c(=O)c34)[C@H](c3cc(O)c(O)c4oc5c(C)cccc5c(=O)c34)[C@H]2C(C)(C)C1
Second: CN(C)c1ccc(N2Cc3ccccc3OC3=C2C(=O)c2c(O)ccc(O)c2C3=O)cn1
The TGI of the first is 18-fold higher: 7.86 µM for the first, 0.425 µM for the second.

Compared with C1=Cc2ccccc2Nc2ccccc21, CC(C)(C)NC(C1=CC(C)(C)c2ccccc2C1=O)c1ccccc1 (stereo unspecified) is 20-fold lower in TGI: 33.7 µM for the first, 1.66 µM for the second.

Compared with COc1cc2nc(-c3cnc(N(C)C)nc3)nc(NC3CCN(Cc4ccccc4)CC3)c2cc1OC, COc1cc(-c2nc(Nc3nc4ccccc4[nH]3)nc(N)c2C#N)cc(OC)c1OC is 9-fold higher in TGI: 2.96 µM for the first, 26.6 µM for the second.

Going from CC[C@H](C)[C@H]1NC(=O)[C@@H](N[C@](C)(O)[C@@H](N)CC(C)C)[C@@H](C)OC(=O)[C@H](Cc2ccc(OC)cc2)N(C)C(=O)[C@@H]2CCCN2C(=O)[C@H](CC(C)C)NC(=O)[C@@H](C)C(=O)[C@H](C(C)C)OC(=O)C[C@@H]1O to CCC(C)(C)C(=O)O[C@H]1C[C@@H](C)C=C2C=C[C@H](C)[C@H](CC[C@@H]3C[C@@H](O)CC(=O)O3)[C@H]21, the TGI rises from 0.261 µM to 6.68 µM (26-fold).

Compared with CCOc1cccc(/C=N/NC(=O)c2ccc(Nc3ccnc(C(F)(F)F)c3)cc2)c1O, COC(=O)Nc1nc2ccc(Oc3ccc(NC(=O)Nc4cccc(C(=O)O)c4)cc3)cc2[nH]1 is 4.3-fold higher in TGI: 2.96 µM for the first, 12.8 µM for the second.

First: CC1(C)CC[C@]23CC[C@]4(C)[C@H](CC[C@@H]5[C@@]6(C)CCCN(CO)C(C)(C)[C@@H]6CC[C@]54C)[C@H]2[C@H]1OC3
Second: C/C=C(\C)C(=O)N[C@H]1CC[C@]2(C)C3CC[C@@]4(C)C(CC[C@@H]4C(C)N(C)C)C3CCC2[C@H]1OC(C)=O (stereo partly specified)
The TGI of the first is 1.6-fold higher: 4.18 µM for the first, 2.63 µM for the second.

Going from COc1ccc2c(c1)C(=O)/C(=C/c1cccc(OCC(=O)Nc3nc4c(s3)CCCC4)c1)O2 to COc1ccccc1OCC(=O)Nc1sc2c(c1C(N)=O)CCC2, the TGI rises from 0.353 µM to > 100 µM.

Going from CCOc1c(Br)cc(C2C(C(=O)OC)=CN(C)C=C2C(=O)OC)cc1OC to COc1cc(C(=O)c2ccc3c(c2)OCO3)cc(OC)c1OC, the TGI falls from > 100 µM to 3.32 µM.

Compared with CC1=CC(=NC(=O)CBr)C=C/C1=N\S(=O)(=O)c1ccccc1, O=c1cc(-c2ccccc2)[nH]c2cc(F)c(F)cc12 is higher in TGI: 8.01 µM for the first, > 100 µM for the second.

Compared with O=C1CC(c2ccc(N3CCOCC3)cc2)(c2ccsc2)NC(=O)C1Sc1ccccc1Cl (stereo unspecified), c1ccc(Cn2cc3c(c2-c2ccccc2)CCc2cnoc2-3)cc1 is lower in TGI: > 100 µM for the first, 8.02 µM for the second.

Going from CC[C@@H](C(=O)[C@@H](C)[C@@H](O)[C@H](C)[C@@H]1O[C@@H]([C@@H](CC)C(=O)O)CC[C@@H]1C)C1O[C@]2(C=CC(=O)[C@]3(CC[C@@](C)([C@H]4CC[C@](O)(CC)[C@H](C)O4)O3)O2)[C@H](C)C[C@@H]1C (stereo partly specified) to C=C1C(=O)O[C@H]2[C@H]1CC/C(COC(=O)CCCCC(=O)OC/C1=C/CC[C@@]3(C)O[C@H]3[C@H]3OC(=O)C(=C)[C@@H]3CC1)=C\CC[C@@]1(C)O[C@@H]21, the TGI rises from 1.96 µM to 5.11 µM (2.6-fold).

CCN(CC)CCCC(C)Nc1cnc(C(=O)Nc2ccc(Cl)c3cccnc23)cn1 (stereo unspecified) and O=c1c2cccc(Cl)c2sc2c(NCCCNCCO)nc3ccccc3c12 are within 1.5-fold of each other in TGI: 3.49 µM for the first, 2.98 µM for the second.

Compared with COc1cc(NS(C)(=O)=O)ccc1Nc1c2ccc(Cl)cc2nc2c(OC)cccc12, COc1ccc2nc(-c3cc(-c4cc(OC)c(OC)c(OC)c4)n[nH]3)[nH]c2c1 is 10-fold higher in TGI: 0.484 µM for the first, 4.96 µM for the second.

First: COc1cccc(C2c3cc4c(cc3OC(C)(O)C2C)OCO4)c1O (stereo unspecified)
Second: Cc1nn(-c2nc3ccccc3s2)c(C)c1Oc1ccccc1O
The TGI of the first is 2.1-fold higher: 56.6 µM for the first, 27.4 µM for the second.

Compared with Cc1cc(N2CCCCC2)nc(N(CCCNc2ccnc3cc(Cl)ccc23)Cc2ccco2)n1, Cn1nccc1Nc1nccc(-c2cc3c(s2)C(C)(C)N(CCN2CCOCC2)C3=O)n1 is higher in TGI: 3.87 µM for the first, > 83.5 µM for the second.

Compared with COc1ccc(-c2[nH]c3ccccc3c2C=C(C#N)C#N)cc1, COc1ccc(N(CC(=O)NCCC[Te]c2ccccc2)C(=O)c2ccccc2)cc1 is lower in TGI: > 100 µM for the first, 17.6 µM for the second.

Oc1ccc2cc(Br)ccc2c1-c1c(O)ccc2cc(Br)ccc12 gave a TGI of 11.7 µM.
